Measured values reported in EPA's ToxValDB 9.5 (doi:10.2903/j.efsa.2012.2927).
Counter-ions that a name gives are not always drawn.

Test system: Rattus norvegicus
Settings: oral, no effects
[1] = chronic, duration: 17 weeks, gavage
[2] = subchronic, duration: 90 days, diet
[3] = subchronic, duration: 90 days, drinking water

SMILES	NOAEL [1] [mg/kg-day]	NOAEL [2] [mg/kg-day]	NOAEL [3] [mg/kg-day]	NOAEL (subchronic, duration: 90 days) [mg/kg-day]
CC(C)C(=O)O [2-Methylpropanoic acid]	> 1000	> 2500	> 1450	> 219
CC(=O)OCC(C)C [Isobutyl acetate]	> 1000	> 2500	> 1450	> 219
CC(=O)OCCC(C)C [3-Methylbutyl acetate]	> 1000	> 2500	> 1450	> 219
CCCCC(C)CCC(=O)O (stereo unspecified) [Octanoic acid, 4-methyl-]	> 1000	> 2500	> 1450	> 219
CCC(=O)OCCC(C)C [3-Methylbutyl propanoate]	> 1000	> 2500	> 1450	> 219
CCCC(=O)OCC(COC(=O)CCC)OC(=O)CCC [Glycerol tributyrate]	> 1000	> 2500	> 1450	> 219
CCC(C)C=O (stereo unspecified) [2-Methylbutanal]	> 1000	> 2500	> 1450	> 219
CCC(C)COC(C)=O (stereo unspecified) [2-Methylbutyl acetate]	> 1000	> 2500	> 1450	> 219
CCC(C)COC(=O)CC(C)C (stereo unspecified) [2-Methylbutyl isovalerate]	> 1000	> 2500	> 1450	> 219
CCC(C)C(=O)OCCC(C)C (stereo unspecified) [Butanoic acid, 2-methyl-, 3-methylbutyl ester]	> 1000	> 2500	> 1450	> 219
CC(C)CC=O [3-Methylbutanal]	> 1000	> 2500	> 1450	> 219
CCCC(=O)OCC(C)C [Isobutyl butyrate]	> 1000	> 2500	> 1450	> 219
CC(C)COC(=O)CC(C)C [Butanoic acid, 3-methyl-, 2-methylpropyl ester]	> 1000	> 2500	> 1450	> 219
CCCCCC(C)C(=O)O (stereo unspecified) [Heptanoic acid, 2-methyl-]	> 1000	> 2500	> 1450	> 219
CCCC(=O)OCCC(C)C [Isopentyl butyrate]	> 1000	> 2500	> 1450	> 219
CC(C)COC(=O)C(C)C [Isobutyl isobutyrate]	> 1000	> 2500	> 1450	> 219
CC(C)CCOC(=O)C(C)C [Isopentyl isobutyrate]	> 1000	> 2500	> 1450	> 219
CCCC(=O)OCC(C)CC (stereo unspecified) [Butanoic acid, 2-methylbutyl ester]	> 1000	> 2500	> 1450	> 219
CCC(CC)C(=O)O [2-Ethylbutyric acid]	> 1000	> 2500	> 1450	> 219
CC(C)CCO [Isopentyl alcohol]	> 1000	> 2500	> 1450	> 219
CC(C)CC(=O)O [Isovaleric acid]	> 1000	> 2500	> 1450	> 219
CC(C)CO [2-Methyl-1-propanol]	> 1000	> 2500	> 1450	> 219
CCCC(C)C(=O)O (stereo unspecified) [2-Methylpentanoic acid]	> 1000	> 2500	> 1450	> 219
CC(C)CCOC=O [Isoamyl formate]	> 1000	> 2500	> 1450	> 219
